Literature values, collected in patent US20250213575A1, “8-HETEROCYCLIC-3-(PHENYLSULFONYL)-[1,2,3]TRIAZOLO[1,5A]QUINAZOLIN-5(4H)-ONE DERIVATIVES AS ANTI-BACTERIALS” (priority 2022, published 2025).

Test system: AgrA-regulated toxin gene transcription such as hla, psma and pvl
Details: across all four agr groups; cited from earlier work

SMILES: CC(C)c1ccc(S(=O)(=O)c2nnn3c2nc(O)c2ccccc23)cc1 [Savirin]
- modulation of AgrA-regulated toxin gene transcription: potent modulator
